Our source for the IC50 values is ChEMBL document CHEMBL1777731, “Design and synthesis of potent HIV-1 protease inhibitors incorporating hydroxyprolinamides as novel P2 ligands” (Bioorg Med Chem Lett, 2011).

For this assay, the system named is HIV-1 protease (Human immunodeficiency virus 1). As to the kind of experiment: Inhibition of wild type HIV1 protease expressed in Escherichia coli by fluorometric assay.
Consider `Cc1ccc(NC(=O)[C@@H]2C[C@@H](OC(=O)N[C@@H](Cc3ccccc3)[C@H](O)CN(CC(C)C)S(=O)(=O)c3ccc(N)cc3)CN2)cc1`, for which the IC50 amounted to 0.139 µM.
To `COc1cc(NC(=O)[C@@H]2C[C@@H](OC(=O)N[C@@H](Cc3ccccc3)[C@H](O)CN(CC(C)C)S(=O)(=O)c3ccc(N)cc3)CN2)cc(OC)c1OC` belongs 10.1 µM.
`COc1cccc(NC(=O)[C@@H]2C[C@@H](OC(=O)N[C@@H](Cc3ccccc3)[C@H](O)CN(CC(C)C)S(=O)(=O)c3ccc(N)cc3)CN2)c1`: half-maximal inhibition (IC50) required 15.2 µM.
With `COc1ccc(OC)c(NC(=O)[C@@H]2C[C@@H](OC(=O)N[C@@H](Cc3ccccc3)[C@H](O)CN(CC(C)C)S(=O)(=O)c3ccc(N)cc3)CN2)c1`, the IC50 was determined as 11.8 µM.
Compound `CC(C)(C)NC(=O)[C@@H]1CN(Cc2cccnc2)CCN1C[C@@H](O)C[C@@H](Cc1ccccc1)C(=O)N[C@H]1c2ccccc2C[C@H]1O` gave an IC50 below 0.01 µM.
`CC(C)CN(C[C@@H](O)[C@H](Cc1ccccc1)NC(=O)O[C@H]1CN[C@H](C(=O)Nc2ccccc2)C1)S(=O)(=O)c1ccc(N)cc1`: the IC50 worked out at 14.8 µM.
In the case of `CC(C)CN(C[C@@H](O)[C@H](Cc1ccccc1)NC(=O)O[C@H]1CN[C@H](C(N)=O)C1)S(=O)(=O)c1ccc(N)cc1`, the IC50 worked out at 0.0166 µM.
The compound `COc1ccc(NC(=O)[C@@H]2C[C@@H](OC(=O)N[C@@H](Cc3ccccc3)[C@H](O)CN(CC(C)C)S(=O)(=O)c3ccc(N)cc3)CN2)cc1` gave an IC50 of 0.0154 µM.
In turn, `CC(C)CN(C[C@@H](O)[C@H](Cc1ccccc1)NC(=O)O[C@H]1CN[C@H](C(=O)NC(C)(C)C)C1)S(=O)(=O)c1ccc(N)cc1` returned a concentration for half-maximal inhibition (IC50) of 10.1 µM.
`COc1ccccc1NC(=O)[C@@H]1C[C@@H](OC(=O)N[C@@H](Cc2ccccc2)[C@H](O)CN(CC(C)C)S(=O)(=O)c2ccc(N)cc2)CN1`: 13 µM corresponded to half-maximal inhibition (IC50).

In general, IC50 refers to the midpoint of a concentration-inhibition curve. High values mean weaker potency in that assay, low ones greater potency in that assay.
